Measurements published in patent US12503687B2, “Therapeutic bacteriophage compositions” (priority 2017, dated 2025).
“And” between values parts separate entries of the source, which are not always exact repeats. Equal entries are not always repeated.

System: Staphylococcus aureus strain UNT144-3
Test: S. aureus pneumonia model (neutropenic murine lung infection)
Type: in vivo, mice
Details: 100 mg/kg SC at 2 and 6 hrs post-infection; CFU assessed 24 hr
Experimental: The sensitivity of two S. aureus clinical isolates, UNT109-3 (NRS234, native valve endocarditis) and UNT144-3, that have been previously utilized in animal models of infection, was evaluated vs. the individual phage and the 4-phage panel. […] The virulence of the two strains was then evaluated in the murine lung infection model. Female Hsd:ICR(CD-1) mice (Harlan Laboratories, Houston, TX) were administered 150 and 100 mg/kg cyclophosphamide on day −4 and day −1 prior to infection to render them neutropenic. Groups of 5 mice were then anaesthetized by intraperitoneal (IP) injection of 0.15 mL of a mixture of ketamine HCl (100 mg/kg body weight) plus xylazine (10 mg/kg body weight). Once anaesthetized, mice were infected intranasally by placing drops on the external nares and allowing inhalation of the 50 μl inoculum. Twenty-four hours after infection, mice were euthanized by CO2 inhalation and lungs processed for bacterial titers. Bacterial counts were enumerated on Brain Heart Infusion agar (Difco™ Laboratories)+0.5% activated charcoal (Sigma-Aldrich) plates for ease of recovering and detecting S. aureus (Barr, J. G., et al., J. Clin. Pathol. (1987) 40:372-376). […]
Three phage panel treatment groups were evaluated for efficacy: 2×10^10 PFU/mL per phage, 2×10^9 PFU/mL per phage, and 2×10^8 PFU/mL per phage. […]

For `CN[C@H](CC(C)C)C(=O)N[C@H]1C(=O)N[C@@H](CC(N)=O)C(=O)N[C@H]2C(=O)N[C@H]3C(=O)N[C@H](C(=O)N[C@H](C(=O)O)c4cc(O)cc(O)c4-c4cc3ccc4O)[C@H](O)c3ccc(c(Cl)c3)Oc3cc2cc(c3O[C@@H]2O[C@H](CO)[C@@H](O)[C@H](O)[C@H]2O[C@H]2C[C@](C)(N)[C@H](O)[C@H](C)O2)Oc2ccc(cc2Cl)[C@H]1O` [Vancomycin], the “Mean ± SD log10 CFU/Lung Pair” value was 5.55 log10 CFU/Lung Pair and 5.55 ± 1.1 log10 CFU/Lung Pair.
